{
  "source": "patent US7041705B2",
  "about": "“Injectable aqueous dispersions of propofol” (Jagotec AG, priority 1998, dated 2006)",
  "test_system": "human whole-blood (erythrocytes)",
  "conditions": "both",
  "description": "In-vitro evaluation of the hemolytic influence of the preparations of this invention on human whole-blood was determined as a further guide to selecting formulations with a low tendancy to produce irritation around the site of injection. The hemolytic potential of the formulation on blood was evaluated by the assay of erythrocyte cytoplasmic marker enzyme, lactate dehydrogenase (LDH). Measurement of erythrocyte cytoplasmic marker enzyme. LDH, which escapes from the leaky or ruptured erythrocytes into tie plasma compartment of the blood, is one of the commonly used quantitative assays described in literature for evaluation of hemolytic potential of injectable formulations (Stenz and Bauer, 1996). The blood was obtained from male or female Caucasian human volunteers of 18 to 65 years age and stabilized with sodium heparin. The test formulation was mixed with an equal volume of human whole blood and incubated at 37° C. for about 1 hour. The mixture was then held at ambient temperature for 30 min. followed by centrifugation at 1500 rpm for 10 min. The level of LDH in the supernatant was determined by a standard procedure known to the scientists skilled in this art.",
  "note": "Counter-ions that a name gives are not always drawn. Like-named read-outs stand apart in the source and are kept apart here.",
  "data": [
    {"smiles": "CCCCc1oc2ccccc2c1C(=O)c1cc(I)c(OCCN(CC)CC)c(I)c1", "note": "[Amiodarone hydrochloride]", "values": [
      {"measurement": "LDH", "setting": "1.8 mg/mL", "value": 673, "unit": "IU/L"},
      {"measurement": "LDH", "setting": "50 mg/mL", "value": 8190, "unit": "IU/L"}
    ]}
  ]
}
